From US6159953A, “Anti-malarial composition and method of use” (Catholic University of America, priority 1992, dated 2000)
Read-outs that look alike come from different tables or passages of the source.

Assays:
[1] = tested on: IMR-90 human lung fibroblast cells; assay: Toxicity to cultured IMR-90 cells, number of viable cells; format: cell-based
Excerpt: 2. Effects of orotate analogues on cell viability and the ability to synthesize nucleic acids from radioactive precursors, and the rescuing effects of normal pyrimidine bases or nucleosides or amino acid derivatives such as histidinol, can be tested in human-derived tissue culture cell lines. Human HT-1080 human sarcoma cells [Rusheed, S., et al., Cancer, 33:1027-30 (1974)], human diploid IMR-90 cells [Nichols, W. W., et al., Science, 196:60-3 (1977)], human cervical […] HeLa S3 cells [Puck, T. T., et al., J. Exp. Med., 103:273-84 (1956)], HL-60 human myeloid leukemia cells [Collins, S. J., et al., Nature, 270:347-9 (1977)], and mouse leukemia L-1210 cells [Moore, G. E., J. Nat. […] The growth medium most suitable for each cell line can be determined by reference to the publications cited above: briefly, HT-1080 cells are maintained in Eagle's Minimal Essential Medium (EMEM) supplemented with 5% fetal bovine serum (FBS) and 2 mM L-glutamine; IMR-90 cells are grown in EMEM supplemented with 10% FBS, 10 mM Hepes buffer, 0.21% NaHCO3, and 2 mM L-glutamine. […]
Toxicity of pyrimidine analogues to cultured human cells is determined as follows. […] Thereafter, the number of cells in each well is determined. […] Cells that grow in suspension (e.g., HL-60 and L-1210 cells) are transferred to centrifuge tubes, pelleted at low speed, washed, and the viability determined as above. […]

[2] = tested on: Plasmodium falciparum, Sierra Leone clone D6; assay: Inhibition of P. falciparum proliferation, [G-3H]-hypoxanthine incorporation, Sierra Leone clone D6 (chloroquine-sensitive); format: cell-based; details: for IC50: Plasmodium falciparum
Description: 3. Effects of pyrimidine analogues alone or in combination with normal pyrimidine bases or nucleosides or with amino acid derivatives can be tested in malaria parasite-infected erythrocytes. Varying concentrations of pyrimidine analogues in culture medium are added to individual wells of microtitre plates [Desjardins, R. E. et al., Antimicrob. […] Parasitemic erythrocytes in culture medium are added to each well. […] As an alternative to adding a radioactive precursor of nucleic acid biosynthesis, the end point for determining the effects of added drugs can be the incorporation of a radioactive amino acid, e.g., [U-^14 C]-isoleucine, into parasite protein.
Fluoropyrimidines, dispersed in 25 μl of culture medium, were added to individual wells of a 96-well microtitre plate. […] Finally, the incorporation of 0.5 μCi of [G-^3 H]hypoxanthine (1 Ci/mmol) into nucleic acids in each well was determined; this served as a measure of parasite proliferation. […] In a second method, the increase in parasitemia was determined directly by smearing infected erythrocytes on microscope slides, staining with Giemsa stain, and determining the ratio of infected to non-infected erythrocytes. In a third method, parasite-infected erythrocytes were incubated with [U-^14 C]-isoleucine (0.5 μCi; 0.33 Ci/mmol), and the amount of radioactivity incorporated into precipitable proteins determined.

[3] = tested on: Plasmodium falciparum, Sierra Leone clone; assay: Increase in parasitemia by light microscopy (Giemsa-stained smears), Sierra Leone clone; format: cell-based, P. falciparum; details: Table 2, light microscopy
Description: Additionally, parasite-infected and treated erythrocytes can be smeared on microscope slides, stained with, e.g., Giemsa stain, and the ratio of infected to non-infected erythrocytes determined.
The chloroquine-sensitive Sierra Leone clone of P. falciparum was cultured in erythrocytes as in Example 1 above. In one method of determining the toxicity of 5-fluoro-orotate, [G-^3 H]-hypoxanthine uptake was used as an indicator of parasite proliferation, according to the procedure of Example 1 above. In a second method, the increase in parasitemia was determined directly by smearing infected erythrocytes on microscope slides, staining with Giemsa stain, and determining the ratio of infected to non-infected erythrocytes. In a third method, parasite-infected erythrocytes were incubated with [U-^14 C]-isoleucine (0.5 μCi; 0.33 Ci/mmol), and the amount of radioactivity incorporated into precipitable proteins determined.

O=C(O)c1[nH]c(=O)[nH]c(=O)c1F [5-fluoro-orotate] showed an IC50 ([1]; IMR-90, with 1 mM uridine, read-out: IC50 With 1 mM Uridine) of 2200 nM, an IC50 ([1]; IMR-90, without uridine, read-out: IC50 Without Uridine) of 1100 nM and an IC50 ([2]; D6, Example 3, Table 2, hypoxanthine uptake) of 2.2 nM. The IC50 ([2]; D6, Sierra Leone clone, Table 1, mean ± S.D. of five independent drug response curves) was 5.8 ± 3.1 nM, the “times more active than chloroquine” value ([2]; chloroquine-sensitive Sierra Leone clone) was 1.6 times and the IC50 [3] was 2.5 nM.
